Legend:
PC3 cells = conditions: androgen independent PC3 cells; 10 nM DHT for indicated times; Western blot
Method: In FIG. 2B, PC3 cells were treated with 10 nM DHT for indicated times, cells were collected and cellular extracts were prepared and analyzed for Hexim-1 and GAPDH. The histogram indicates a ratio between Hexim-1 and GAPDH. Data are expressed as means±SE of 3 independent experiments.

LNCaP cell line = conditions: VEGF 10 ng/mL or 10 nM DHT for 3, 6, 12 and 24 hr, Western blot densitometry, P<0.05 vs control
Method: In this example, to determine the responsiveness of Hexim-1 to androgen and VEGF in the epithelial prostate LNCap cell line, LNCap cells were treated with VEGF (10 ng/mL) or 10 nM dihydrotestosterone (DHT) for 3, 6, 12 and 24 hours, with the change in expression of Hexim-1 protein evaluated by Western blot.
FIG. 2A illustrates the epithelial prostate LNCaP cell line which was treated with VEGF (10 ng/ml) or 10 nM dihydrotestosterone (DHT) 10 nM for 3, 6, 12 and 24 hr. Protein extracts were obtained from each time point and the changes in the protein expression of Hexim-1, p-Akt and GAPDH evaluated by Western blot. The histogram indicates the ratio between p-AKT and GAPDH and the ratio of Hexim-1 to GAPDH as obtained by densitometry analysis of the Western blots. Data are expressed as means±SE of 4 independent experiments.

androgen receptor (AR) = androgen receptor (AR) (UniProt P19091)
Sequence of UniProt P19091 (P19091 whole entry): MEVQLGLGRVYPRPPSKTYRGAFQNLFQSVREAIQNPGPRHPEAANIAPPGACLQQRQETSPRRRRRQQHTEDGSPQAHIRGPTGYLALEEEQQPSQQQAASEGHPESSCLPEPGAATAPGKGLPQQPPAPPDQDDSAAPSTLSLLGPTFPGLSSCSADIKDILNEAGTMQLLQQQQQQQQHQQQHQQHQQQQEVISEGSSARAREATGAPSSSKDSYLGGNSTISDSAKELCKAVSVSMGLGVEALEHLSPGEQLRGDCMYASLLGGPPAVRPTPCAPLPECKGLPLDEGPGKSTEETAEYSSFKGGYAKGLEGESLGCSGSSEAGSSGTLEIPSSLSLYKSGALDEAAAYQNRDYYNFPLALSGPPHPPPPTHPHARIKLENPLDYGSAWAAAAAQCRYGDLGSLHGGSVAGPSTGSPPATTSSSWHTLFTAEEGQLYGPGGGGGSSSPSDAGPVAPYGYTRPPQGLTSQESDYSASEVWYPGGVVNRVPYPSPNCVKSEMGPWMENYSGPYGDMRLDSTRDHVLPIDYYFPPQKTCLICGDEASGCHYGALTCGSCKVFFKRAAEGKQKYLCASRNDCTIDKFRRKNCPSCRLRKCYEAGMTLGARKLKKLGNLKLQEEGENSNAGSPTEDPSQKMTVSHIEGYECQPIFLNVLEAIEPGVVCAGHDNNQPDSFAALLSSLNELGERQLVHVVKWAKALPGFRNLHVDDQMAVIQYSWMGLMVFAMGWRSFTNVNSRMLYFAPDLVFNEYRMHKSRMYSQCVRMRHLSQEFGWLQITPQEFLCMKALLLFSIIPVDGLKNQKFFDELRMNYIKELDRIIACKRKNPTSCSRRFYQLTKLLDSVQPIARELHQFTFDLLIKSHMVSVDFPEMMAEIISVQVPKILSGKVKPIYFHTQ

Molecule: C[C@]12CCC(=O)C[C@@H]1CC[C@@H]1[C@@H]2CC[C@]2(C)[C@@H](O)CC[C@@H]12 [DHT, dihydrotestosterone]
- Hexim-1 levels (ratio between Hexim-1 and GAPDH) (PC3 cells): not changed
- Hexim-1 protein levels (ratio of Hexim-1 to GAPDH) (LNCaP cell line): induced
- p-Akt levels (ratio between p-AKT and GAPDH) (LNCaP cell line): correlated with the increased Hexim-1 expression

Molecule: VEGF
- Hexim-1 protein levels (ratio of Hexim-1 to GAPDH) (LNCaP cell line): induced
- p-Akt levels (ratio between p-AKT and GAPDH) (LNCaP cell line): correlated with the increased Hexim-1 expression

Molecule: cyclin dependent kinase 9 (Cdk9)
- serine-81 phosphorylation of the androgen receptor (Western blot after immunoprecipitation) (androgen receptor (AR)): the serine phosphorylation of AR is significantly increased
